This is an account of results in PMC8658889, “Seriniquinones as Therapeutic Leads for Treatment of BRAF and NRAS Mutant Melanomas” (Molecules, 2021).

Broadly, the IC50 is the point on the concentration scale where inhibition reaches its midpoint. A higher IC50 goes with weaker potency in that assay.

The test system of one test is MCF7. The test is described as follows: MTT cytotoxicity assay. Type of test: cell-based, Human. As to conditions: for IC50: Homo sapiens, MCF7, 72 h treatment, MTT. The source says:
(§1) Human cell lines were used throughout this program. SK-MEL-19 (melanoma BRAF^V600E, NRAS^WT), SK-MEL-28 (melanoma BRAF^V600E, NRAS^WT), SK-MEL-147 (melanoma BRAF^WT, NRAS^Q61R), MRC-5 (fibroblasts), and primary fibroblast (FDH) were kindly provided by Professor Glaucia Santelli (University of São Paulo, Brazil). MCF7 (breast adenocarcinoma, ATCC HTB-22), and HCT-116 (colorectal carcinoma, ATCC 247) cells were obtained from American Type Culture Collection (ATCC) and deposited in the Cell Bank of Rio de Janeiro, Brazil. WM293A (metastatic melanoma BRAF^V600D, NRAS^WT), 501mel (metastatic melanoma BRAF^V600E; NRAS^G12D), and MM200 (melanoma BRAF^V600E, NRAS^WT) were kindly provided by Professor Sharon Prince, University of Cape Town, South Africa. All human melanoma and breast cell lines were cultivated with Dulbecco’s Modified Eagle Medium: Nutrient Mixture F-12 (Thermo Fisher Scientific, San Jose, CA, USA). MM200 and HCT-116 were maintained with Roswell Park Memorial Institute (RPMI) medium (Thermo Fisher Scientific, San Jose, CA, USA). Unless stated otherwise, media was supplemented with 10% fetal bovine serum (FBS) and 1% penicillin-streptomycin (Thermo Fisher Scientific, San Jose, CA, USA). Cells were incubated with 5% CO2 at 37 °C. When required, cells were detached from flask using trypsin-EDTA 0.05% (Thermo Fisher Scientific, San Jose, CA, USA).
(§2) Cytotoxic activity was evaluated by the transformation of 3-(4,5-dimethylthiazol-2-yl)-2,5-diphenyltetrazolium bromide (MTT; Thermo Fisher Scientific, San Jose, CA, USA) into formazan by viable cells. Cells were plated in a 96-well plate (1 × 10^4 cells/well) and, 24 h later, exposed to serial dilutions of the test compounds (from 0.00032 to 5.0 µM) for 24, 48, and 72 h. For each analysis, negative controls received 0.5% DMSO and positive control was delivered by doxorubicin (DOX; 0.05 to 10.0 µM). At the end of the incubation periods, the medium was replaced with fresh medium containing 0.5 mg/mL of MTT and supernatant was removed 3 h later. The plates were dried at 50 °C for 30 min and formazan was solubilized in DMSO (150 µL/well) for the absorbance measure at 570 nm on a plate reader (Thermo Fisher Scientific, San Jose, CA, USA). IC50 values (half-maximal inhibitory concentration) along with 95% CI (confidence intervals) were calculated by non-linear regression using GraphPad Prism 8.0 software (GraphPad Software, Inc., San Diego, CA, USA).
On the technique in general: Tetrazolium dyes change colour on reduction, which living cells bring about.

The subject of the next test is HCT-116. The test is described as follows: MTT cytotoxicity assay. The class given is cell-based, Human. As to conditions: for IC50: Homo sapiens, HCT-116, 72 h treatment, MTT.
From the text: as §1, §2

Test [1] has as its system SK-MEL-147. The test is described as follows: Western blotting of apoptosis and autophagy markers. To be noted: SK-MEL-147, 24 h. The class given is cell-based, Human. As for the experimental part:
(§3) […] (2.5 × 10^5) cells in 1 mL of media were seeded in cell culture dishes and, 24 h later, treated with SQ1 (0.3 µM and 0.6 µM for SK-MEL-28 and 0.9 µM and 1.8 µM for SK-MEL-147) or SQ2 (0.05 µM and 0.1 µM for SK-MEL-28 and 0.6 µM and 1.2 µM for SK-MEL-147) for 24 h. Doxorubicin (DOX; 1.4 µM for SK-MEL-28 and 0.8 µM for SK-MEL-147) was used as positive control and 0.5% DMSO as negative control.
(§4) Treated cells (Section 4.6) had their proteins extracted with the following solution: 10 mM ethylenediaminetetraacetic acid (EDTA), 10% triton, 2 mM phenylmethanesulfonyl fluoride (PMSF), 10 mM Tris base, 10 mM sodium pyrophosphate, 100 mM sodium fluoride, 2.5 mM sodium orthovanadate, and deionized water. The resulting extract was quantified for protein concentration and 30 µg of protein were subjected to SDS-PAGE and to Western blot analysis with the indicated antibodies: cleaved PARP-1 (#5625), PARP1 (#9542), cleaved caspase-3 (#9604), caspase-3 (#9662), SQSTM1/p62 (#5114), LC3B (#2775), and α-tubulin (#2144) from Cell Signaling Technology (Danvers, MA, USA). Images of membranes were made using Pierce ECL Western Blotting Substrate (Thermo Fisher Scientific, San Jose, CA, USA) and G:BOX Chemi XRQ (Syngene, Cambridge, UK). Band intensities were quantified using UN-SCAN-IT gel 6.1 software (Silk Scientific; Orem, UT, USA).
For orientation: A western blot detects proteins with antibodies after separation by electrophoresis.

For a further test, the system named is SK-MEL-28. The description is as above. As to conditions: SK-MEL-28, 24 h. Type of test: cell-based, Human. The procedure: as §3, §4
Another test concerns DCD gene. The test is described as follows: DCD gene expression by qPCR in SK-MEL-147. The class given is cell-based, Human. As to conditions: SK-MEL-147, 24 h. The procedure: as §3
Treated cells (Section 4.6) had their total RNA extracted and purified using TRIzol reagent (Thermo Fisher Scientific, San Jose, CA, USA), in accordance with the manufacturer’s recommendations. For analysis of DCD expression, purified total RNA was quantified using an Eon Microplate Spectrophotometer (BioTek Instruments, Winooski, VT, USA). Quantitative PCR (qPCR) was conducted on a Rotor Gene 6000 real-time cycler (Corbett Life Science, Sydney, NSW, Australia) using GoTaq 1-Step RT-qPCR System (Promega, Madison, WI, EUA). The cycle conditions were as follows: 45 °C for 10 min, 95 °C for 15 min and 40 cycles of 95 °C for 15 s; 60 °C for 60 s, followed by the melt. Relative expression was calculated using the comparative CT method Delta-Delta-Ct (DDCt). The primer sequences and concentrations utilized (DCD and RPLPO) can be consulted in Table S3.

The subject of test [2] is SK-MEL-147. Kind of test: Clonogenic assay. The class given is cell-based, Human. To be noted: for decrease of cell proliferation expressed by colony area: SK-MEL-147, 24 h treatment, 6 days in drug-free medium. The procedure:
as §3
After the cells were submitted to the treatment scheme (Section 4.6), adherent cells were collected, plated at 1 × 10^3 cell/plate on 35-mm plates and maintained in culture for 6 days in treatment-free medium. The medium was replaced every 2 days. Cells were then fixed and stained with a solution of 20% MeOH (Synth, Diadema, São Paulo, Brazil) and 0.5 g crystal violet (Sigma-Aldrich, St. Louis, MO, USA). Images were acquired using G:BOX Chemi XRQ (Syngene, Cambridge, UK) and quantified using the ImageJ program (ColonyArea; US National Institutes of Health, Bethesda, MD, USA).

The next test deals with MRC-5. The test is described as follows: MTT cytotoxicity assay. As to conditions: MRC-5 non-tumor fibroblasts, 72 h treatment, MTT.
The mark [3] stands for this setting: MCF7 versus FDH, 72-h IC50 ratio.
Where [4] appears, read: MCF7 versus MRC-5, 72-h IC50 ratio.
The mark [5] stands for this setting: HCT-116 versus FDH, 72-h IC50 ratio.
Setting [6] is: HCT-116 versus MRC-5, 72-h IC50 ratio.

SMILES strings stand for the structures.

In the case of `O=c1c2ccccc2c(=O)c2c1sc1c(=O)c3ccccc3c(=O)c12` [SQ1, seriniquinone], the IC50 with MCF7 worked out at 3.3 µM; with HCT-116 it was 1 µM; in the test on MRC-5 (Homo sapiens, MRC5, 72 h), 0.64 µM; in the test on MRC-5, 0.6 µM. Besides, the “Selectivity Index (SI)” value with MCF7 (setting [3]) came out at 0.3; in the test with MCF7 (setting [4]), 0.2; in the test on HCT-116 (setting [5]), 1.1; with HCT-116 (setting [6]), 0.6. Moreover, the “apoptotic markers (cleaved PARP-1, cleaved caspase-3)” value in the test with SK-MEL-147 [1] and with SK-MEL-28 was “increase of typical apoptotic markers” each time. Moreover, the “autophagic flux (p62)” value in the test on SK-MEL-28 was “extinction of p62”. Further, the “DCD expression relative to control” value in the test with DCD gene (1.8 µM) was “twofold”. In addition, the “reduction of the colony levels” value in the test with SK-MEL-147 [2] (SK-MEL-147, 24 h treatment at half IC50 and IC50, 6 days in drug-free medium) is given as “greater than 50%”. Besides, the “decrease of cell proliferation expressed by colony area” value in the test with SK-MEL-147 [2] was 50%.
Consider `CC(C)(O)C(O)CCc1ccc2c(=O)c3sc4c(=O)c5ccccc5c(=O)c4c3c(=O)c2c1` (stereo not shown) [SQ2], for which the half-maximal inhibitory concentration (IC50) in the test with MCF7 worked out at 0.73 µM; with HCT-116, 0.23 µM; in the test on MRC-5 (Homo sapiens, MRC5, 72 h), 1.57 µM. Moreover, the “Selectivity Index (SI)” value turned out to be 1.6 in the test on MCF7 (setting [3]), 2.2 with MCF7 (setting [4]), 5.1 in the test on HCT-116 (setting [5]) and 6.8 with HCT-116 (setting [6]). Besides, the “apoptotic markers (cleaved PARP-1, cleaved caspase-3)” value with SK-MEL-147 [1] and in the test on SK-MEL-28 was “increase of typical apoptotic markers” throughout. Moreover, in the test with DCD gene (1.2 µM), the “DCD overexpression relative to control” value is “eight”. Moreover, in the test on SK-MEL-147 [2], the “decrease of cell proliferation expressed by colony area” value amounted to 50%.
